Test results: PubChem BioAssay AID256 (DTP/NCI, 2004)
Where “and” joins values, the source holds several entries; their conditions need not be identical. Equal entries are not always repeated. Toxic doses and inconclusive results are not listed. The calls were made as follows: active = survival T/C of 150% or more; inactive = T/C below 125% in these data.

System: CD2F1 mice, L1210 leukemia ip, survival T/C
Assay: NCI In Vivo Anticancer Drug Screen. Data for tumor model L1210 Leukemia (intraperitoneal) in CD2F1 (CDF1) mice
Settings: higher = longer survival
Method in brief: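 Implant tumor; dose compound or vehicle; measure endpoint in both groups; report treated divided by control.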

[1] = endpoint: mean survival time, dose: 100.0 mg/kg/injection, schedule: Q01DX001 (ip), vehicle: saline
[2] = endpoint: mean survival time, dose: 100.0 mg/kg/injection, schedule: Q01DX009 (ip), vehicle: saline with Tween-80
[3] = endpoint: mean survival time, dose: 100.0 mg/kg/injection, schedule: Q04DX003 (ip), vehicle: saline with Tween-80
[4] = endpoint: mean survival time, dose: 200.0 mg/kg/injection, schedule: Q01DX009 (ip), vehicle: saline with Tween-80
[5] = endpoint: mean survival time, dose: 200.0 mg/kg/injection, schedule: Q04DX003 (ip), vehicle: saline with Tween-80
[6] = endpoint: mean survival time, dose: 400.0 mg/kg/injection, schedule: Q01DX009 (ip), vehicle: saline with Tween-80
[7] = endpoint: mean survival time, dose: 400.0 mg/kg/injection, schedule: Q04DX003 (ip), vehicle: saline with Tween-80
[8] = endpoint: mean survival time, dose: 50.0 mg/kg/injection, schedule: Q01DX009 (ip), vehicle: saline with Tween-80
[9] = endpoint: mean survival time, dose: 100.0 mg/kg/injection, schedule: Q04DX003 (ip), vehicle: saline
[10] = endpoint: mean survival time, dose: 200.0 mg/kg/injection, schedule: Q04DX003 (ip), vehicle: saline
[11] = endpoint: mean survival time, dose: 400.0 mg/kg/injection, schedule: Q04DX003 (ip), vehicle: saline
[12] = endpoint: mean survival time, dose: 100.0 mg/kg/injection, schedule: Q04DX002 (ip), vehicle: saline with Tween-80
[13] = endpoint: mean survival time, dose: 200.0 mg/kg/injection, schedule: Q04DX002 (ip), vehicle: saline with Tween-80
[14] = endpoint: mean survival time, dose: 400.0 mg/kg/injection, schedule: Q04DX002 (ip), vehicle: saline with Tween-80

Measured: T/C

CCOC(=O)/C(C#N)=N\O
inactive: [1] 102 % of control

COC(=O)C1(C(=O)OC)CCCCC1=O
inactive: [2] 98 % of control | [3] 97 % of control | [4] 95 % of control | [5] 94 % of control | [6] 95 % of control | [7] 89 % of control

c1ccc(CN2CCCCc3ccccc32)cc1
inactive: [8] 100 % of control | [2] 98 % of control | [4] 104 % of control

O=[N+]([O-])c1ccc(OP2(Oc3ccc([N+](=O)[O-])cc3)=NP(Oc3ccc([N+](=O)[O-])cc3)(Oc3ccc([N+](=O)[O-])cc3)=NP(Oc3ccc([N+](=O)[O-])cc3)(Oc3ccc([N+](=O)[O-])cc3)=NP(Oc3ccc([N+](=O)[O-])cc3)(Oc3ccc([N+](=O)[O-])cc3)=N2)cc1
inactive: endpoint: mean survival time, dose: 25.0 mg/kg/injection, schedule: Q01DX009 (ip), vehicle: saline 100 % of control | endpoint: mean survival time, dose: 50.0 mg/kg/injection, schedule: Q01DX009 (ip), vehicle: saline 100 % of control | endpoint: mean survival time, dose: 100.0 mg/kg/injection, schedule: Q01DX009 (ip), vehicle: saline 100 % of control | [9] 102 % of control | [10] 100 % of control | [11] 96 % of control

c1cc2c(c(CC3CO3)c1CC1CO1)OCCOCCOCCOCCO2 (stereo not drawn)
inactive: endpoint: median survival time, dose: 12.5 mg/kg/injection, schedule: Q01DX009 (ip), vehicle: saline + alcohol 112 % of control and 97 % of control and 98 % of control | endpoint: median survival time, dose: 25.0 mg/kg/injection, schedule: Q01DX009 (ip), vehicle: saline + alcohol 123 % of control and 97 % of control and 98 % of control | endpoint: median survival time, dose: 50.0 mg/kg/injection, schedule: Q01DX009 (ip), vehicle: saline + alcohol 102 % of control and 104 % of control | endpoint: median survival time, dose: 100.0 mg/kg/injection, schedule: Q01DX009 (ip), vehicle: saline + alcohol 119 % of control and 93 % of control and 110 % of control | endpoint: median survival time, dose: 200.0 mg/kg/injection, schedule: Q01DX009 (ip), vehicle: saline + alcohol 120 % of control

CN(C)N=Nc1ccccc1C(=O)NC#N
inactive: endpoint: mean survival time, dose: 9.38 mg/kg/injection, schedule: Q01DX009 (ip), vehicle: Klucel (hydroxypropylcellulose) (HPC) 101 % of control and 103 % of control and 104 % of control

CSc1nc(C)cc(=O)[nH]1
inactive: [12] 94 % of control | [13] 97 % of control | [14] 90 % of control

CCC/C=C(\C#N)C(=O)OC
inactive: endpoint: mean survival time, dose: 75.0 mg/kg/injection, schedule: Q01DX001 (ip), vehicle: saline 97 % of control

O=c1cn[nH]c2cc(Cl)ccc12
inactive: [2] 91 % of control | [3] 100 % of control | [4] 101 % of control | [5] 105 % of control | [6] 92 % of control | [7] 97 % of control

COc1ccccc1C(O)(C(=O)OCCSC)c1ccccc1OC
inactive: [9] 93 % of control | [10] 94 % of control | [11] 88 % of control

CC(=O)OCC1OC(n2nc(-c3ccccc3)c(=O)n(-c3ccccc3)c2=O)C(OC(C)=O)C(OC(C)=O)C1OC(C)=O (stereo not drawn)
inactive: endpoint: mean survival time, dose: 3.8 mg/kg/injection, schedule: Q01DX005 (ip), vehicle: water 96 % of control | endpoint: mean survival time, dose: 7.5 mg/kg/injection, schedule: Q01DX005 (ip), vehicle: water 96 % of control | endpoint: mean survival time, dose: 15.0 mg/kg/injection, schedule: Q01DX005 (ip), vehicle: water 96 % of control | endpoint: mean survival time, dose: 30.0 mg/kg/injection, schedule: Q01DX005 (ip), vehicle: water 101 % of control | endpoint: mean survival time, dose: 60.0 mg/kg/injection, schedule: Q01DX005 (ip), vehicle: water 101 % of control

NC(CSCc1ccccc1)C(=O)OCc1ccccc1 (stereo not drawn)
inactive: [3] 104 % of control | [5] 102 % of control | [7] 104 % of control

CCN(CCNC(=O)Nc1ccccc1OC)c1ccccc1
inactive: [12] 98 % of control | [13] 94 % of control | [14] 94 % of control

CCCCCCCCCCCCCCCC[N+](C)(C)CC#CCCl
inactive: endpoint: mean survival time, dose: 6.25 mg/kg/injection, schedule: Q04DX002 (ip), vehicle: saline with Tween-80 96 % of control | endpoint: mean survival time, dose: 12.5 mg/kg/injection, schedule: Q04DX002 (ip), vehicle: saline with Tween-80 88 % of control | endpoint: mean survival time, dose: 25.0 mg/kg/injection, schedule: Q04DX002 (ip), vehicle: saline with Tween-80 88 % of control

O=C(O)/C=C/C(=O)Nc1ccccc1Cl
inactive: [2] 96 % of control | [3] 94 % of control | [4] 96 % of control | [5] 105 % of control | [7] 101 % of control

O=C(O)C1=CCC=CC1
inactive: [2] 104 % of control | [4] 97 % of control | [6] 106 % of control

CCCC(=O)c1cc(O)ccc1O
inactive: [1] 101 % of control | endpoint: mean survival time, dose: 200.0 mg/kg/injection, schedule: Q01DX001 (ip), vehicle: saline 96 % of control | endpoint: mean survival time, dose: 400.0 mg/kg/injection, schedule: Q01DX001 (ip), vehicle: saline 104 % of control

O=C(OC1CCCCC1c1ccccc1)c1ccc([N+](=O)[O-])cc1 (stereo not drawn)
inactive: [3] 90 % of control | [5] 98 % of control | [7] 90 % of control

CC1(C(=O)O)C2C3C=CC(C3)C21 (stereo not drawn)
inactive: [2] 100 % of control | [4] 97 % of control | [6] 103 % of control

C1=CSCCC1
inactive: endpoint: mean survival time, dose: 25.0 mg/kg/injection, schedule: Q04DX002 (ip), vehicle: saline + alcohol 102 % of control | endpoint: mean survival time, dose: 50.0 mg/kg/injection, schedule: Q04DX002 (ip), vehicle: saline + alcohol 94 % of control | endpoint: mean survival time, dose: 100.0 mg/kg/injection, schedule: Q04DX002 (ip), vehicle: saline + alcohol 90 % of control

CCOC(=O)c1[nH]c(C2OC(CO)C(O)C2O)nc1O (stereo not drawn)
inactive: endpoint: median survival time, dose: 49.9 mg/kg/injection, schedule: Q01DX005 (ip), vehicle: saline 96 % of control | endpoint: median survival time, dose: 99.7 mg/kg/injection, schedule: Q01DX005 (ip), vehicle: saline 98 % of control | endpoint: median survival time, dose: 199.3 mg/kg/injection, schedule: Q01DX005 (ip), vehicle: saline 96 % of control

Cc1cc(O)c(C(C)(C)C)cc1C(c1ccccc1)c1cc(C(C)(C)C)c(O)cc1C
inactive: endpoint: mean survival time, dose: 100.0 mg/kg/injection, schedule: Q01DX001 (ip), vehicle: saline with Tween-80 93 % of control | endpoint: mean survival time, dose: 200.0 mg/kg/injection, schedule: Q01DX001 (ip), vehicle: saline with Tween-80 93 % of control | endpoint: mean survival time, dose: 400.0 mg/kg/injection, schedule: Q01DX001 (ip), vehicle: saline with Tween-80 95 % of control

C=C(Br)CNC(=O)Nc1c2ccccc2nc2ccccc12
inactive: endpoint: mean survival time, dose: 25.0 mg/kg/injection, schedule: Q01DX009 (ip), vehicle: Klucel (hydroxypropylcellulose) (HPC) 97 % of control | endpoint: mean survival time, dose: 50.0 mg/kg/injection, schedule: Q01DX009 (ip), vehicle: Klucel (hydroxypropylcellulose) (HPC) 98 % of control | endpoint: mean survival time, dose: 100.0 mg/kg/injection, schedule: Q01DX009 (ip), vehicle: Klucel (hydroxypropylcellulose) (HPC) 97 % of control

O=C(c1ccccc1)c1cccs1
inactive: endpoint: mean survival time, dose: 22.0 mg/kg/injection, schedule: Q01DX009 (ip), vehicle: saline with Tween-80 96 % of control | endpoint: mean survival time, dose: 22.0 mg/kg/injection, schedule: Q04DX003 (ip), vehicle: saline with Tween-80 95 % of control | endpoint: mean survival time, dose: 44.0 mg/kg/injection, schedule: Q01DX009 (ip), vehicle: saline with Tween-80 96 % of control | endpoint: mean survival time, dose: 44.0 mg/kg/injection, schedule: Q04DX003 (ip), vehicle: saline with Tween-80 101 % of control | endpoint: mean survival time, dose: 88.0 mg/kg/injection, schedule: Q01DX009 (ip), vehicle: saline with Tween-80 93 % of control | endpoint: mean survival time, dose: 88.0 mg/kg/injection, schedule: Q04DX003 (ip), vehicle: saline with Tween-80 104 % of control

COc1ccccc1/C(C)=N\NC(=O)c1ccccc1
inactive: [2] 94 % of control | [3] 94 % of control | [4] 96 % of control | [5] 98 % of control | [7] 104 % of control

CS(=O)(=O)c1cc(C(F)(F)F)cc([N+](=O)[O-])c1Cl
inactive: [8] 103 % of control | [2] 103 % of control | [3] 97 % of control | [5] 94 % of control
